Data on four molecules can be found in article PMC8305076, “Comprehensive Evaluation of Biological Effects of Pentathiepins on Various Human Cancer Cell Lines and Insights into Their Mode of Action” (International Journal of Molecular Sciences, 2021).

Structures are written as SMILES.

The test system of series [1] is HAP-1.KO.GPx1. In words: annexin V-FITC/PI apoptosis assay. The note with it: pentathiepins IC90, doxorubicin 0.5 µM, 24 h. It is filed as cell-based, human. Here is the method:
As reported in our earlier publication, a representative pentathiepin was capable of inducing apoptosis in cancer cell lines. Here, we tested compounds 1–6 for their ability to trigger this particular modality of cell death in a subset of four cell lines: HAP-1, HAP-1.KO.GPx1, A2780, and Siso. A flow cytometric assay was performed, allowing us to discriminate between viable, early, and late apoptotic cells (representative dot plots can be found in Figure S47). FITC-labeled annexin V was used to assess the externalization of phosphatidyl serine as a hallmark of early apoptosis induction. The addition of propidium iodide (PI) enabled the detection of late apoptotic cells as it only permeates porous cell membranes and exerts fluorescence once bound to double-stranded DNA.
The annexin V-FITC/PI assay, which discriminates between viable, early, and late apoptotic cells within a sample population, was performed according to the manufacturer’s instructions (Miltenyi Biotec, Teterow, Germany). Briefly, 125,000 cells were seeded in 2 mL per well of a 6-well plate, allowed to adhere overnight, and subsequently treated with the respective pentathiepin (IC90, see Table S4) diluted in 3 mL of medium. After incubation periods of 6, 24, or 48 h, the cells were harvested, washed with the provided binding buffer, and stained with the annexin V-FITC reagent for 20 min at room temperature (RT) in the dark. After another washing step, the pellet was resuspended, and PI was added immediately before flow cytometric measurement at λEx/Em = 488/525 ± 50 nm for FITC and λEx/Em = 488/655–730 nm for PI with the MACSquant Analyzer 10 (Miltenyi Biotec, Teterow, Germany).

For series [2], the system named is caspase-3 and -7 in HAP-1.KO.GPx1. Nature of the series: luminescent caspase activity assay. Conditions: pentathiepins IC90, doxorubicin 0.5 µM, 24 h. It is filed as cell-based, human. An excerpt: (§1) To further corroborate this mode of cell death, we performed a luminescent caspase assay by measuring caspase-3 (cas-3) and caspase-7 (cas-7) activities (Figure 16). Both are executioner caspases that are present as zymogens (35 kDa) and become active after being cleaved (fragment sizes 17 and 19 kDa) by initiator caspases. Activated cas-3 and -7 in turn have several other substrates, including PARP1. In this assay, a precursor with a caspase-specific target sequence was converted into its luminescent form by active caspase-3 or -7, thereby emitting light that can be quantified.
(§2) To study the activation of the effector caspases -3 and -7, we performed a luminescence-based assay according to the manufacturer’s instructions (Caspase-Glo, Promega, Walldorf, Germany). Briefly, 5000 cells were seeded in 0.1 mL per well of a 96-well plate and allowed to adhere overnight. […] Afterwards, the standard protocol was followed, including a 30 min incubation time before measurement of luminescent signals by using the Spectramax i3x (Molecular Devices, Sunnyvale, CA, USA). After subtraction of the background luminescence the positive control and treatment conditions were related to the negative control.

Another series concerns caspase-3 and -7 in Siso. Nature of the series: luminescent caspase activity assay. It is filed as cell-based, human. The note with it: pentathiepins IC90, doxorubicin 0.5 µM, 24 h.
Description: as §1, §2

Series [3] concerns caspase-3 and -7 in A2780. Nature of the series: luminescent caspase activity assay. It is filed as cell-based, human. The note with it: pentathiepins IC90, doxorubicin 0.5 µM, 24 h.
Description: as §1, §2

For series [4], the system named is caspase-3 and -7 in HAP-1. In words: luminescent caspase activity assay. It is filed as cell-based, human. Conditions: pentathiepins IC90, doxorubicin 0.5 µM, 24 h.
Description: as §1, §2

A further series relates to PARP1 in HAP-1. Nature of the series: Western blot of cleaved PARP1. It is filed as cell-based, human. Conditions: pentathiepins IC90, doxorubicin 0.5 µM, 24 h. The procedure: (§3) In addition to general flow cytometric and microscopic analyses, Western blotting was performed to detect the apoptosis-relevant protein PARP1 (poly(ADP-ribose) polymerase 1) and its cleavage fragment (Figure 17 and Figures S29–S34). Full-length PARP1 (116 kDa) is involved in DNA repair, and a cleavage by caspases (fragment sizes 24 and 89 kDa) caused by caspase-3 and -7 is a hallmark of late apoptosis.
(§4) All detected specific bands were normalized to the total protein load per lane by the TGX stain-free gel system from Bio-Rad.
(§5) All Western blot analyses were performed with reagents, material, and devices purchased from Bio-Rad (Feldkirchen, Germany) if not stated otherwise. To obtain protein lysates, we seeded cells and treated them as described for the other methods. […] Cells were harvested by trypsinization and centrifugation for 5 min at 500× g. After a washing step with PBS, the cell pellet was resuspended in lysis buffer (Tris 50 mM (pH 7.4), 100 mM NaCl, 100 mM NaF, 5 mM EDTA, 0.2 mM Na3VO4, 0.1% Triton-X, and 1% protease inhibitor cocktail added immediately before use). Lysis was supported by incubating the samples for 10 min in an ultrasonic bath before centrifuging for 10 min at 18,000 × g and 4 °C. Protein quantification was performed via the Bradford method using ROTI®nanoquant reagent (Carl Roth GmbH, Karlsruhe, Germany) and bovine serum albumin as calibration standard. For electrophoretic separation, 15–40 µg of protein was loaded per well of a polyacrylamide gel (Mini- or Midi-Protean® TGX stain-free gel, Bio-Rad, Feldkirchen, Germany), and subsequent blotting was performed with Trans-Blot®Turbo™TransferPack Mini or Midi PVDF membranes from Bio-Rad (Feldkirchen, Germany). The membranes were blocked with a 10% non-fat milk powder solution in Tris-buffered saline (TBS; 2.42 g/L Tris, 8.48 g/L NaCl in water) plus 0.5% Tween-20 (TBST) for 1 h at RT. Incubation with primary antibodies took place over night at 4 °C in a 1:1000 dilution in TBST containing BSA (1%). The secondary antibodies conjugated to horse-radish peroxidase were diluted 1:10,000 in TBST and 1% BSA, and incubated for 4 h at RT. A detection step followed, applying Clarity™Western ECL substrate with subsequent imaging via the INTAS Advanced Fluorescence Imager. Between all incubation steps, the blots were washed three times for 10 min with TBST. The bands were quantified with the ImageLab software and normalized using the total protein quantification of the TGX stain-free gel system from Bio-Rad.
(In general: In western blotting, separated proteins are transferred to a membrane and probed.)

The subject of another series is PARP1 in HAP-1.KO.GPx1. Nature of the series: Western blot of cleaved PARP1. It is filed as cell-based, human. Conditions: pentathiepins IC90, doxorubicin 0.5 µM, 24 h. Here is the method: as §3, §4, §5
A further series addresses T1, bovine erythrocyte GPx1 (Bos taurus, UniProt P00435).
T1 construct: the isolated enzyme from bovine erythrocytes; purchased Sigma-Aldrich (Taufkirchen, Germany); host or cells: isolated from bovine erythrocytes
T1 sequence (P00435 1-205): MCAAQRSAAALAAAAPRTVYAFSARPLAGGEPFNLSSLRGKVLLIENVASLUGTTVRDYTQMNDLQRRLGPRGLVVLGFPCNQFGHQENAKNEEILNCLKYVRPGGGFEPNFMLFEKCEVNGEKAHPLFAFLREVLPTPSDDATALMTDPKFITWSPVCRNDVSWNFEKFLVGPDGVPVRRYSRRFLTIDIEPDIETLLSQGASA
Set-up: method as in PMID 32311219; key to GPx1 inhibition: no impact (0); weak impact (+); strong impact (++). The note with it: cited from earlier work.

The next series concerns Siso. Nature of the series: alkaline Comet assay. It is filed as cell-based, human. The note with it: 25 µM pentathiepin or 20 µM H2O2, 15 min, 0 °C. An excerpt:
(§6) Next, the potential of the pentathiepins 1–6 to damage nuclear DNA was investigated in the cell lines HAP-1, HAP-1.KO.GPx1, and Siso, with different expression levels of GPx1 and CAT (see Figure 7), by Comet Assay (Figure 12) with representative images in the Supplementary Materials (Figure S48).
(§7) With this assay, the intensity of DNA damage can be assessed on the level of a single cell, in case of the alkaline version detecting both single and double strand breaks as well as alkali-labile sites. The method presented here is an adaptation of the protocol published by Olive and Banath and based on the distinct electrophoretic mobility of damaged and intact genomic DNA. The latter has a low mobility; does thus not migrate in the electric field; and remains in a nucleoid shape after lysis, referred to as the comet head. In contrast, when strand breaks are created, free charged ends emerge and increase the electrophoretic mobility, prompting DNA segments to drift away from the comet head, thereby forming the so-called comet tail. As descriptor of still intact genomic DNA, the percentage of DNA in the comet head was selected. Per condition, 50,000 cells of either Siso, HAP-1, or HAP-1.KO.GPx1 were diluted in 1 mL of PBS and subsequently treated with either a 1% DMF aqueous solution as negative control, 20 µM of H2O2 as positive control, or 25 µM of pentathiepin for 15 min on ice to impair intracellular DNA repair mechanisms. Afterwards, 400 µL of the cell suspension was blended with 1.2 mL of a 1% low melting point agarose solution (40 °C) and smoothly distributed on agarose-precoated glass slides. Polymerization was finished after 3 min at RT, and the slides were horizontally submerged in alkaline lysis buffer (1.2 M NaCl, 0.1% N-lauryl-sarcosinate, 0.1 M Na-EDTA, 0.26 M NaOH) before storing them at 4 °C overnight. The slides were then rinsed three times in rinse/electrophoresis buffer (0.002 M Na-EDTA, 0.03 M NaOH) before electrophoretic separation was performed for 25 min at 0.6 V/cm. A neutralization step by adding distilled water was followed by staining the slides with 250 µL of an aqueous 10 µg/mL PI solution for 20 min. For visualization and image capturing, a DMi8 fluorescent microscope and LASX software (Leica Microsystems, Wetzlar, Germany) were used, and the comets scored with the help of CometScore2.0 (rexhoover.com). Per condition and replicate, at least 100 comets were analyzed to calculate a mean level of damage.

Series [5] has as its system HAP-1.KO.GPx1. Nature of the series: alkaline Comet assay. It is filed as cell-based, human. The note with it: 25 µM pentathiepin or 20 µM H2O2, 15 min, 0 °C.
Description: as §6, §7

Another series deals with HAP-1. Nature of the series: alkaline Comet assay. It is filed as cell-based, human. Conditions: 25 µM pentathiepin or 20 µM H2O2, 15 min, 0 °C.
Description: as §6, §7

For series [6], the system named is HAP-1, HAP-1.KO.GPx1, A2780, and Siso. Set-up: method as in PMID 32311219; key: no impact (0); weak impact (+); strong impact (++). The note with it: summary grade; first generation compound; cited from earlier work.
In series [7] the test system is panel of 14 human cancer cell lines. Set-up: method as in PMID 32311219; key: no impact (0); weak impact (+); strong impact (++). Conditions: summary grade; first generation compound; cited from earlier work.
In the next series the test system is GR/CAT. On the set-up: method as in PMID 32311219; key: no impact (0); weak impact (+); strong impact (++). The note with it: summary grade; first generation compound; cited from earlier work.
Series [8] relates to HAP-1, HAP-1.KO.GPx1, and Siso. Set-up: method as in PMID 32311219; key: no impact (0); weak impact (+); strong impact (++). The note with it: summary grade; first generation compound; cited from earlier work.
Series [9] concerns panel of 14 human cancer cell lines. On the set-up: method as in PMID 32311219; key: no impact (0); weak impact (+); strong impact (++). The note with it: summary grade; first generation compound; cited from earlier work. The source holds these as a separate data set.
Series [10] deals with HAP-1, HAP-1.KO.GPx1, A2780 and Siso. Set-up: method as in PMID 32311219; key: no impact (0); weak impact (+); strong impact (++). The note with it: summary grade; first generation compound; cited from earlier work.
Series [11] deals with HAP-1, HAP-1.KO.GPx1, Siso and A2780 cells. On the set-up: method as in PMID 32311219; key: no impact (0); weak impact (+); strong impact (++). Conditions: summary grade; first generation compound; cited from earlier work.
The subject of a further series is seven cancer cell lines. On the set-up: method as in PMID 32311219; key: no impact (0); weak impact (+); strong impact (++). Conditions: summary grade; first generation compound; cited from earlier work.
In the next series the test system is pBR322 plasmid DNA. On the set-up: method as in PMID 32311219; key: no impact (0); weak impact (+); strong impact (++). Conditions: summary grade; first generation compound; cited from earlier work.

For the molecule `COc1cccc2c1C(=O)c1c(O)c3c(c(O)c1C2=O)C[C@@](O)(C(=O)CO)C[C@@H]3O[C@H]1C[C@H](N)[C@H](O)[C@H](C)O1` [doxorubicin, reference compound], in the series on HAP-1.KO.GPx1 [1], the early apoptotic cells result is recorded as “about 50%”. Also, the “caspase-3 and -7 activity vs solvent control” value in [2] is “activation of the caspase-3 and -7 was confirmed”; in the series on caspase-3 and -7 in Siso it was “activation of the caspase-3 and -7 was confirmed”; in series [3], “activation of the caspase-3 and -7 was confirmed”; in [4], “activation of the caspase-3 and -7 was confirmed”. For the same molecule, the “cleaved PARP1” value in the series on PARP1 in HAP-1 and in the series with PARP1 in HAP-1.KO.GPx1 was “detected to statistically significant extents” in each case.

Regarding `O=C(O)CC(S)C(=O)O` (stereo not drawn) [mercaptosuccinic acid], the IC50 on bovine erythrocyte GPx1 (GPx1 inhibition) is 5.9 µM.

Consider `OO` [Compound H2O2, hydrogen peroxide], for which the “intact genomic DNA (Comet head)” value in the series with Siso is listed as “about 10%”; in the series with HAP-1.KO.GPx1 [5] it was 5%; in the series with HAP-1, 63%.

`CCOc1c2c(c3cnc4cc(C)c(C)cc4n13)SSSSS2` [(c)]: the Apoptosis result in [6] is “+”. In addition, the Antiproliferative effect result in series [7] is “+”. The GR/CAT inhibition in the series on GR/CAT is 0. The Comet formation entry in series [8] is reported as “+”. Besides, in series [9], the Cytotoxicity result was “+”. Further, in series [10], the Ferroptosis is listed as 0. Further, the Morphological changes entry in series [11] was “+”. The GPx1 inhibition result at bovine erythrocyte GPx1 (summary grade, first generation compound) is given as “+”. Also, the ROS induction entry in the series with seven cancer cell lines was “+”. Moreover, the DNA cleavage entry in the series with pBR322 plasmid DNA is reported as “+”.

As usually defined, the IC50 is the midpoint of a concentration-inhibition curve.
